The source made the active and inactive calls. No cut-off for these calls is given here.
Legend:
[1] = Resistance index, ratio of IC50 for chloroquine resistant Plasmodium falciparum K1 infected in human erythrocytes to IC50 for chloroquine sensitive Plasmodium falciparum 3D7 infected in human erythrocytes; type: functional
[2] = Cytotoxicity against monkey kidney Vero cells by resazurin assay; type: cell-based; details: chlorocebus sabaeus
[3] = Selectivity index, ratio of CC50 for monkey kidney VERO cells to IC50 for chloroquine sensitive Plasmodium falciparum 3D7 infected in human erythrocytes; type: functional
[4] = tested on: Plasmodium falciparum; assay: Antiplasmodial activity against chloroquine sensitive Plasmodium falciparum 3D7 infected in human erythrocytes incubated for 72 hrs by SYBR Green1-based fluorescence analysis; type: functional, organism-based; details: 3D7, 72 h
[5] = tested on: Plasmodium falciparum; assay: Antiplasmodial activity against chloroquine resistant Plasmodium falciparum K1 infected in human erythrocytes incubated for 72 hrs by SYBR Green1-based fluorescence analysis; type: functional, organism-based; details: K1, 72 h
[6] = Selectivity index, ratio of CC50 for monkey kidney VERO cells to IC50 for chloroquine resistant Plasmodium falciparum K1 infected in human erythrocytes; type: functional
[7] = tested on: MCF7; assay: Upregulation of p53 level in human MCF7 cells at antiplasmodial IC50 after 48 hrs by immnublotting method; type: functional, cell-based; details: TDE = time-dependent effect
[8] = tested on: Mus musculus; assay: Toxicity in multidrug-resistant Plasmodium yoelii nigeriensis infected Swiss mouse assessed as mouse survival at 100 mg/kg/day, po for 4 days; type: organism-based; details: in vivo, 96 h
[9] = tested on: Plasmodium yoelii nigeriensis; assay: Antiplasmodial activity against multidrug-resistant Plasmodium yoelii nigeriensis infected in Swiss mouse assessed as suppression of parasitaemia at 100 mg/kg, po for 4 days by Geimsa-staining based analysis; type: functional; details: 96 h
[10] = tested on: MCF7; assay: Induction of p53 protein expression in human MCF7 cells at antiplasmodial IC50 after 36 hrs by luciferase reporter assay relative to control; type: functional
[11] = Tmax in Sprague-Dawley rat at 100 mg/kg, po after 0 to 48 hrs by LC-MS/MS analysis; type: ADME, organism-based; details: in vivo
[12] = Cmax in Sprague-Dawley rat at 100 mg/kg, po after 0 to 48 hrs by LC-MS/MS analysis; type: ADME, organism-based; set-up: dose 100 mg/kg, route oral; details: in vivo
[13] = tested on: MCF7; assay: Induction of p53 protein expression in human MCF7 cells at antiplasmodial IC50 after 36 hrs by luciferase reporter assay relative to control relative to doxorubicin; type: functional
[14] = tested on: Rattus norvegicus; assay: AUC(last) in Sprague-Dawley rat at 100 mg/kg, po after 0 to 48 hrs by LC-MS/MS analysis; type: ADME, organism-based; set-up: dose 100 mg/kg, time 0 - last, route oral; details: in vivo
[15] = Mean residence time(last) in Sprague-Dawley rat at 100 mg/kg, po after 0 to 48 hrs by LC-MS/MS analysis; type: ADME, organism-based; details: in vivo
[16] = tested on: Rattus norvegicus; assay: Apparent oral volume of distribution in Sprague-Dawley rat at 100 mg/kg, po after 0 to 48 hrs by LC-MS/MS analysis; type: ADME, organism-based; details: in vivo
[17] = Apparent oral clearance in Sprague-Dawley rat at 100 mg/kg, po after 0 to 48 hrs by LC-MS/MS analysis; type: ADME, organism-based; details: in vivo

Row | Structure (SMILES) | Ratio IC50 [1] | CC50 [2] [nM] | Ratio CC50/IC50 [3] | IC50 [4] [nM] | IC50 [5] [nM] | Ratio CC50/IC50 [6] | Activity [7] | Activity [8] | inhibition in vivo at 100 mg/kg [9] [%] | Activity [10] | Tmax [11] [h] | Cmax [12] [ng/mL] | fold change (FC) [13] | AUClast [14] [ng·h/mL] | MRT last [15] [h] | fold change (FC) [10] | Vd/F [16] [L/kg] | CL/F [17] [mL/min/kg]
1 | CC(C)c1ccc(-c2c(C(O)(CNc3ccc(F)cc3)c3ccc(Cl)cc3)nnn2Cc2ccccc2)cc1 (stereo not given) | 1.05 | > 500000 | >316.45 | 1580 | 1670 | >299.4 |  |  |  |  |  |  |  |  |  |  |  | 
2 | OC(CNc1ccc(Cl)cc1)(c1ccc(Cl)cc1)c1nnn(Cc2ccccc2)c1-c1ccc(F)cc1 (stereo not given) | 0.72 | > 500000 | >175.43 | 2850 | 2060 | >242.71 |  |  |  |  |  |  |  |  |  |  |  | 
3 | OC(CNc1ccc(Br)cc1)(c1ccc(Br)cc1)c1nnn(Cc2ccccc2)c1-c1ccccc1 (stereo not given) | 0.3 | > 500000 | >303.03 | 1650 | 500 | >1000 | tde | Non-toxic | 16.8 | Active |  |  |  |  |  |  |  | 
4 | OC(CNc1ccc2c(c1)OCO2)(c1ccc(Cl)cc1)c1nnn(Cc2ccccc2)c1-c1ccc(Cl)cc1 (stereo not given) | 0.93 | > 500000 | >183.1 | 2730 | 2560 | >195.3 |  |  |  |  |  |  |  |  |  |  |  | 
5 | Cc1ccc(NCC(O)(c2ccc(Cl)cc2)c2nnn(Cc3ccccc3)c2-c2ccc(F)cc2)cc1C (stereo not given) | 1.04 | > 500000 | >187.26 | 2670 | 2800 | >178.57 |  |  |  |  |  |  |  |  |  |  |  | 
6 | OC(CNc1ccc(F)cc1)(c1ccc(Cl)cc1)c1nnn(Cc2ccccc2)c1-c1ccccc1 (stereo not given) | 1.07 | > 500000 | >151.05 | 3310 | 3570 | >140.05 |  |  |  |  |  |  |  |  |  |  |  | 
7 | OC(CNc1ccc(Br)cc1)(c1ccc(Cl)cc1)c1nnn(Cc2ccccc2)c1-c1ccc(F)cc1 (stereo not given) | 1.82 | > 500000 | >454.54 | 1100 | 2010 | >248.75 |  | Non-toxic | 64.6 | Active |  |  |  |  |  |  |  | 
8 | CC(C)c1ccc(-c2c(C(O)(CNc3ccc(Br)cc3)c3ccc(Cl)cc3)nnn2Cc2ccccc2)cc1 (stereo not given) | >7.03 | 155000 | 515.3 | 300 | 2110 | 73.26 | tde | Non-toxic | 86.8 |  | 4 | 212 | 10 | 1590 | 15 | 20 | 1837.17 | 741
9 | OC(CNc1ccc(F)cc1)(c1ccc(Cl)cc1)c1nnn(Cc2ccccc2)c1-c1ccc(F)cc1 (stereo not given) | 0.85 | > 500000 | >129.19 | 3870 | 3290 | >151.97 |  |  |  |  |  |  |  |  |  |  |  | 
10 | OC(CNc1ccc(F)cc1)(c1ccc(Cl)cc1)c1nnn(Cc2ccccc2)c1-c1ccc(Br)cc1 (stereo not given) | 1 | > 500000 | >155.76 | 3210 | 3230 | >154.79 |  |  |  |  |  |  |  |  |  |  |  | 
11 | OC(CNc1ccc(F)c(F)c1)(c1ccc(Cl)cc1)c1nnn(Cc2ccccc2)c1-c1ccc(Cl)cc1 (stereo not given) | 0.23 | > 500000 | >232.55 | 2150 | 500 | >1000 |  | Non-toxic | 89.9 |  |  |  |  |  |  |  |  | 
12 | Cc1ccc(NCC(O)(c2ccc(Cl)cc2)c2nnn(Cc3ccccc3)c2-c2ccccc2)cc1C (stereo not given) | 1.04 | > 500000 | >193.79 | 2580 | 2700 | >185.18 |  |  |  |  |  |  |  |  |  |  |  | 
13 | Cc1ccc(C(O)(CNc2ccc(C)c(C)c2)c2nnn(Cc3ccccc3)c2-c2ccc(Cl)cc2)cc1 (stereo not given) | 1.51 | > 500000 | >280.89 | 1780 | 2690 | >185.87 |  |  |  |  |  |  |  |  |  |  |  | 
14 | CCN(CC)CCCC(C)Nc1ccnc2cc(Cl)ccc12 (stereo not given) [CHLOROQUINE PHOSPHATE] |  | > 500000 |  |  |  |  |  |  |  |  |  |  |  |  |  |  |  | 
15 | OC(CNc1ccc(I)cc1)(c1ccc(Cl)cc1)c1nnn(Cc2ccccc2)c1-c1ccc(Cl)cc1 (stereo not given) | 0.99 | > 500000 | >337.83 | 1480 | 1470 | >340.1 |  |  |  |  |  |  |  |  |  |  |  | 
16 | OC(CNc1ccc(F)cc1)(c1ccc(Br)cc1)c1nnn(Cc2ccccc2)c1-c1ccccc1 (stereo not given) | 1.69 | > 500000 | >184.5 | 2710 | 4590 | >108.9 |  |  |  |  |  |  |  |  |  |  |  | 
17 | OC(CNc1ccc(Br)cc1)(c1ccc(Cl)cc1)c1nnn(Cc2ccccc2)c1-c1ccccc1 (stereo not given) | 0.95 | > 500000 | >256.41 | 1950 | 1870 | >267.37 |  |  |  |  |  |  |  |  |  |  |  | 
18 | OC(CNc1ccc(Br)cc1)(c1ccc(Cl)cc1)c1nnn(Cc2ccccc2)c1-c1ccc(Br)cc1 (stereo not given) | 2.45 | > 500000 | >574.71 | 870 | 2040 | >233.64 |  | Non-toxic | 27.2 |  |  |  |  |  |  |  |  | 
19 | Cc1ccc(NCC(O)(c2ccc(Br)cc2)c2nnn(Cc3ccccc3)c2-c2ccccc2)cc1C (stereo not given) | 1.27 | > 500000 | >183.8 | 2720 | 3480 | >143.6 |  |  |  |  |  |  |  |  |  |  |  | 
20 | OC(CNc1ccc(Br)cc1)(c1ccc(Cl)cc1)c1nnn(Cc2ccc(Br)cc2)c1-c1ccc(Cl)cc1 (stereo not given) | 0.69 | > 500000 | >206.61 | 2420 | 1680 | >297.61 |  |  |  |  |  |  |  |  |  |  |  | 
21 | OC(CNc1ccc(Br)cc1)(c1ccc(Cl)cc1)c1nnn(Cc2ccccc2)c1-c1ccc(Cl)cc1 (stereo not given) | 0.88 | > 500000 | >314.4 | 1590 | 1410 | >354.6 |  |  |  |  |  |  |  |  |  |  |  | 
22 | OC(CNc1cccc2ccccc12)(c1ccc(Cl)cc1)c1nnn(Cc2ccccc2)c1-c1ccc(Cl)cc1 (stereo not given) | 0.92 | 290000 | 217.59 | 1330 | 1230 | 235.39 | tde |  |  | Active |  |  |  |  |  |  |  | 
23 | OC(CNc1ccccc1Br)(c1ccc(Cl)cc1)c1nnn(Cc2ccccc2)c1-c1ccc(Br)cc1 (stereo not given) | 0.74 | > 500000 | >43.21 | 11600 | 8610 | >58.07 |  |  |  |  |  |  |  |  |  |  |  | 
24 | Cc1ccc(NCC(O)(c2ccc(Cl)cc2)c2nnn(Cc3ccccc3)c2-c2ccc(Cl)cc2)cc1C (stereo not given) | 1.41 | > 500000 | 183.15 | 2240 | 3180 | 195.31 |  |  |  |  |  |  |  |  |  |  |  | 
25 | COc1cc(NCC(O)(c2ccc(Cl)cc2)c2nnn(Cc3ccccc3)c2-c2ccc(Cl)cc2)ccc1Br (stereo not given) | 0.92 | > 500000 | >303.3 | 1650 | 1530 | >326.29 |  |  |  |  |  |  |  |  |  |  |  | 
26 | OC(CNc1ccccc1Br)(c1ccc(Cl)cc1)c1nnn(Cc2ccccc2)c1-c1ccc(F)cc1 (stereo not given) | 0.93 | > 500000 | >55 | 9090 | 8460 | >59.1 |  |  |  |  |  |  |  |  |  |  |  | 

Source: ChEMBL document CHEMBL3758173, “Identification of β-Amino alcohol grafted 1,4,5 trisubstituted 1,2,3-triazoles as potent antimalarial agents” (Eur J Med Chem, 2016)
